Reference: DBAASP
≈ marks a conversion by molar mass, not a printed value.

Assays:
Test in all cases: ≥ marks a high value that may be exact or a test limit, other limits are often not marked, values filed in µg/mL are converted to µM
Pseudomonas aeruginosa = test system: Pseudomonas aeruginosa
[1] = test system: Staphylococcus aureus ATCC 43300
[2] = test system: Pseudomonas aeruginosa ATCC 27853
Bacillus subtilis 168 = test system: Bacillus subtilis 168
[3] = test system: Staphylococcus epidermidis
[4] = test system: Micrococcus luteus CCM 144
Staphylococcus aureus 1 = test system: Staphylococcus aureus 1
Escherichia coli B = test system: Escherichia coli B
Staphylococcus aureus = test system: Staphylococcus aureus
[5] = test system: Candida albicans F7-39/IDE99
Escherichia coli D31 = test system: Escherichia coli D31
[6] = test system: Staphylococcus aureus ATCC 25923
[7] = test system: Pseudomonas aeruginosa ATCC 15442
[8] = test system: Candida albicans ATCC 10231
[9] = test system: Streptococcus mutans ATCC 25175
[10] = test system: Klebsiella pneumoniae ATCC 700603
[11] = test system: Escherichia coli ATCC 25922
[12] = test system: Staphylococcus aureus ATCC 700699
[13] = test system: Staphylococcus aureus ATCC 29213
[14] = test system: Staphylococcus aureus ATCC 33591
Escherichia coli UB1005 = test system: Escherichia coli UB1005
[15] = test system: Salmonella enterica serovar Typhimurium
[16] = test system: Pseudomonas aeruginosa H103
[17] = test system: Enterococcus faecalis ATCC 29212
Candida albicans = test system: Candida albicans
Acinetobacter baumannii = test system: Acinetobacter baumannii
[18] = test system: Pseudomonas aeruginosa PAO1
Escherichia coli = test system: Escherichia coli

Row | Compound | MIC (Pseudomonas aeruginosa) [µM] | MIC [1] [µM] | MIC [2] [µM] | MIC (Bacillus subtilis 168) [µM] | MIC [3] [µM] | MIC [4] [µM] | MIC (Staphylococcus aureus 1) [µM] | MIC (Escherichia coli B) [µM] | MIC (Staphylococcus aureus) [µM] | MIC [5] [µM] | MIC [6] [µM] | MIC [11] [µM] | MIC (Escherichia coli UB1005) [µM] | MIC [15] [µM] | MIC [16] [µM] | MIC (Candida albicans) [µM] | also measured
1 | CC[C@H](C)[C@H](NC(=O)CN)C(=O)N[C@@H](CCSC)C(=O)N[C@@H](CO)C(=O)N[C@@H](CO)C(=O)N[C@@H](CC(C)C)C(=O)N[C@@H](CCSC)C(=O)N[C@@H](CCCCN)C(=O)N[C@@H](CCCCN)C(=O)N[C@@H](CC(C)C)C(=O)N[C@@H](C)C(=O)N[C@@H](C)C(=O)N[C@@H](Cc1cnc[nH]1)C(=O)N[C@H](C(=O)N[C@@H](C)C(=O)N[C@@H](CCCCN)C(N)=O)[C@@H](C)CC [GIMSSLMKKLAAHIAK] | 68 (≈ 115 µg/mL) | 63 (≈ 107 µg/mL) | 20 (≈ 34 µg/mL) | 7 (≈ 11.9 µg/mL) | 13 (≈ 22.1 µg/mL) | 3 (≈ 5.09 µg/mL) | ≥ 53 | 15 (≈ 25.5 µg/mL) | 64 (≈ 109 µg/mL) | 18 (≈ 30.6 µg/mL) |  |  |  |  |  |  | 
2 | CC[C@H](C)[C@H](NC(=O)CN)C(=O)N[C@@H](CCSC)C(=O)N[C@@H](CO)C(=O)N[C@@H](CO)C(=O)N[C@@H](CC(C)C)C(=O)N[C@@H](CCSC)C(=O)N[C@@H](CCCCN)C(=O)N[C@@H](CCCCN)C(=O)N[C@@H](CC(C)C)C(=O)N[C@@H](C)C(=O)N[C@@H](CCCCN)C(=O)N[C@H](C(=O)N[C@H](C(=O)N[C@@H](CCCCN)C(=O)N[C@@H](CCCCN)C(N)=O)[C@@H](C)CC)[C@@H](C)CC [GIMSSLMKKLAKIIKK] | 10 (≈ 17.9 µg/mL) | 33 (≈ 59 µg/mL) | 5.2 (≈ 9.3 µg/mL) | 7 (≈ 12.5 µg/mL) | 2.9 (≈ 5.19 µg/mL) | 3 (≈ 5.37 µg/mL) | 8.6 (≈ 15.4 µg/mL) | 15 (≈ 26.8 µg/mL) | 17 (≈ 30.4 µg/mL) | 7.6 (≈ 13.6 µg/mL) |  |  |  |  |  |  | 
3 | CC[C@H](C)[C@H](NC(=O)CN)C(=O)N[C@@H](Cc1c[nH]c2ccccc12)C(=O)N[C@@H](CO)C(=O)N[C@@H](CO)C(=O)N[C@@H](CC(C)C)C(=O)N[C@@H](CC(C)C)C(=O)N[C@@H](CCCCN)C(=O)N[C@@H](CCCCN)C(=O)N[C@@H](CC(C)C)C(=O)N[C@@H](CCCCN)C(=O)N[C@@H](CCCCN)C(=O)N[C@H](C(=O)N[C@H](C(=O)N[C@@H](C)C(=O)N[C@@H](CCCCN)C(N)=O)[C@@H](C)CC)[C@@H](C)CC [GIWSSLLKKLKKIIAK] | 21 (≈ 38.3 µg/mL) | 20 (≈ 36.5 µg/mL) | 6.3 (≈ 11.5 µg/mL) | 7 (≈ 12.8 µg/mL) | 1.5 (≈ 2.74 µg/mL) | 3 (≈ 5.48 µg/mL) | 4.6 (≈ 8.4 µg/mL) | 1.6 (≈ 2.92 µg/mL) | 5.3 (≈ 9.67 µg/mL) | 16 (≈ 29.2 µg/mL) |  |  |  |  |  |  | 
4 | CC(C)C[C@H](NC(=O)CN)C(=O)N[C@H](C(=O)N[C@H](C(=O)N[C@@H](CC(=O)O)C(=O)N[C@H](C(=O)N[C@@H](CC(C)C)C(=O)N[C@@H](CCCCN)C(=O)NCC(=O)N[C@@H](C)C(=O)N[C@@H](C)C(=O)N[C@@H](CCCCN)C(=O)N[C@H](C(=O)N[C@H](C(=O)N[C@@H](C)C(=O)N[C@@H](C)C(=O)N[C@@H](CCC(=O)O)C(=O)N[C@@H](CC(C)C)C(=O)N[C@@H](CC(C)C)C(=O)N[C@@H](CCCN=C(N)N)C(=O)N[C@@H](CCCCN)C(=O)N[C@@H](C)C(=O)N[C@@H](Cc1cnc[nH]1)C(N)=O)C(C)C)[C@@H](C)O)[C@@H](C)O)[C@@H](C)O)C(C)C [GLVTDTLKGAAKTVAAELLRKAH] |  |  |  |  |  |  |  |  |  |  | 45.3 (≈ 107 µg/mL) |  |  |  |  |  | MIC (Escherichia coli D31): ≥ 100 µM; MIC [7]: ≥ 100 µM; MIC [8]: > 100 µM; MIC [9]: ≥ 100 µM
5 | CC[C@H](C)[C@H](NC(=O)[C@H](CC(=O)O)NC(=O)[C@H](C)NC(=O)[C@H](C)NC(=O)[C@H](C)NC(=O)CNC(=O)[C@H](CCCCN)NC(=O)[C@H](CC(C)C)NC(=O)[C@@H](NC(=O)[C@H](CC(=O)O)NC(=O)[C@@H](NC(=O)[C@@H](NC(=O)CN)C(C)C)C(C)C)[C@@H](C)CC)C(=O)N[C@@H](C)C(=O)NCC(=O)N[C@@H](Cc1cnc[nH]1)C(=O)N[C@@H](CC(C)C)C(=O)N[C@@H](C)C(=O)N[C@@H](CO)C(=O)N[C@@H](CCCCN)C(=O)N[C@H](C(=O)N[C@@H](CCSC)C(=O)N[C@@H](CC(N)=O)C(=O)N[C@@H](CCCCN)C(=O)N[C@@H](CC(C)C)C(N)=O)C(C)C [GVVDILKGAAADIAGHLASKVMNKL] |  |  | > 100 |  |  |  |  |  |  |  |  | 100 (≈ 249 µg/mL) |  |  |  |  | MIC [10]: > 100 µM; MIC [12]: ≥ 100 µM; MIC [13]: > 100 µM; MIC [14]: ≥ 100 µM
6 | CC[C@H](C)[C@H](NC(=O)[C@H](CC(=O)O)NC(=O)[C@@H](NC(=O)[C@@H](NC(=O)CN)C(C)C)C(C)C)C(=O)N[C@@H](CC(C)C)C(=O)N[C@@H](CCCCN)C(=O)NCC(=O)N[C@@H](C)C(=O)N[C@@H](C)C(=O)N[C@@H](CCCCN)C(=O)N[C@@H](CC(=O)O)C(=O)N[C@@H](C)C(=O)N[C@@H](C)C(=O)NCC(=O)N[C@@H](Cc1cnc[nH]1)C(=O)N[C@@H](CC(C)C)C(=O)N[C@@H](C)C(=O)N[C@@H](CO)C(=O)N[C@@H](CCCCN)C(=O)N[C@H](C(=O)N[C@@H](CCSC)C(=O)N[C@@H](CC(N)=O)C(=O)N[C@@H](CCCCN)C(=O)N[C@@H](CC(C)C)C(N)=O)C(C)C [GVVDILKGAAKDAAGHLASKVMNKL] |  |  | > 100 |  |  |  |  |  |  |  |  | > 100 |  |  |  |  | MIC [10]: > 100 µM; MIC [12]: ≥ 100 µM; MIC [13]: > 100 µM; MIC [14]: ≥ 100 µM
7 | NCCCC[C@H](NC(=O)[C@H](Cc1c[nH]c2ccccc12)NC(=O)[C@H](Cc1c[nH]c2ccccc12)NC(=O)[C@H](CCCN=C(N)N)NC(=O)[C@@H](N)CCCN=C(N)N)C(=O)N[C@@H](Cc1c[nH]c2ccccc12)C(=O)N[C@@H](Cc1c[nH]c2ccccc12)C(=O)N[C@@H](Cc1c[nH]c2ccccc12)C(=O)N[C@@H](CCCN=C(N)N)C(=O)O [RRWWKWWWR] |  |  |  |  | 0.7 (≈ 1.08 µg/mL) |  |  |  |  |  | 0.7 (≈ 1.08 µg/mL) |  | 2.7 (≈ 4.17 µg/mL) | 2.7 (≈ 4.17 µg/mL) | 5.4 (≈ 8.35 µg/mL) | 5.4 (≈ 8.35 µg/mL) | MIC [17]: 5.4 µM (≈ 8.35 µg/mL)
8 | CC[C@H](C)[C@H](NC(=O)[C@H](CCCN=C(N)N)NC(=O)[C@H](CC(C)C)NC(=O)[C@H](CCC(N)=O)NC(=O)[C@@H](N)C(C)C)C(=O)N[C@@H](CCCN=C(N)N)C(=O)N[C@H](C(=O)N[C@@H](CS)C(=O)N[C@H](C(=O)N[C@H](C(=O)N[C@@H](CCCN=C(N)N)C(=O)N[C@@H](CCCCN)C(=O)O)[C@@H](C)CC)C(C)C)C(C)C [VQLRIRVCVIRK] | 10.8 (≈ 16 µg/mL) |  |  |  |  |  |  |  | 7.63 (≈ 11.3 µg/mL) |  | 10.8 (≈ 16 µg/mL) | 10.8 (≈ 16 µg/mL) |  | 5.39 (≈ 8 µg/mL) |  |  | MIC (Acinetobacter baumannii): 21.6 µM (≈ 32 µg/mL); MIC [18]: 10.8 µM (≈ 16 µg/mL); MIC (Escherichia coli): 30.5 µM (≈ 45.3 µg/mL)
9 | CC[C@H](C)[C@H](NC(=O)[C@H](CCCN=C(N)N)NC(=O)[C@H](Cc1ccccc1)NC(=O)[C@H](CCCN=C(N)N)NC(=O)[C@@H](N)C(C)C)C(=O)N[C@@H](CCCN=C(N)N)C(=O)N[C@H](C(=O)N[C@@H](C)C(=O)N[C@H](C(=O)N[C@H](C(=O)N[C@@H](CCCN=C(N)N)C(=O)N[C@@H](C)C(N)=O)[C@@H](C)CC)C(C)C)C(C)C [VRFRIRVAVIRA] |  |  |  |  | 1.1 (≈ 1.6 µg/mL) |  |  |  |  |  | 8.24 (≈ 12 µg/mL) |  | 1.1 (≈ 1.6 µg/mL) | 4.12 (≈ 6 µg/mL) | 4.12 (≈ 6 µg/mL) | 4.12 (≈ 6 µg/mL) | 
10 | CC[C@H](C)[C@H](NC(=O)[C@@H](NC(=O)[C@@H](NC(=O)[C@H](CCCN=C(N)N)NC(=O)[C@@H](NC(=O)[C@H](CCCN=C(N)N)NC(=O)[C@H](Cc1c[nH]c2ccccc12)NC(=O)[C@H](CCCCN)NC(=O)[C@@H](N)Cc1c[nH]c2ccccc12)C(C)C)C(C)C)[C@@H](C)O)C(=O)O [WKWRVRVTI] |  |  |  |  | 1.3 (≈ 1.62 µg/mL) |  |  |  |  |  | 2.7 (≈ 3.36 µg/mL) |  | 1.3 (≈ 1.62 µg/mL) | 2.7 (≈ 3.36 µg/mL) | 5.4 (≈ 6.72 µg/mL) | 10.8 (≈ 13.4 µg/mL) | MIC [17]: 2.7 µM (≈ 3.36 µg/mL)
